As a reminder, the AUC(0-t) is the area under the concentration-time curve up to a stated or last time point. High values mean more exposure, low ones less exposure. A word on the half-life: it is how long it takes for the measured level to halve.

A short description of data set [1]: Mouse pharmacokinetic detection. Format: in vivo. As to conditions: CD1 mice. The method, then:
The detection was carried out in 6-8-week-old CD1 mice (purchased from: Speifu (Beijing) Biotechnology Co., Ltd.). […] The concentration of the compound in a plasma sample was analyzed by LC-MS/MS. Pharmacokinetic calculation was carried out by using WinNonlin (Phoenix™, Version 8.3) or other similar software. The following pharmacokinetic parameters were calculated based on plasma concentration and time data: Oral administration: AUClast, bioavailability (F). Statistical calculation was carried out on the above parameter data. Table 3 Pharmacokinetic data of some compounds administered orally in mice

Data set [2] is described as follows: Plasma stability determination. The data set is classed as in vitro ADME. As to conditions: mouse. On the procedure:
Mouse plasma (purchased from IPHASE, Batch No. 23B007) was thawed in a 37°C water bath, centrifuged to remove an upper clot, and the pH value was recorded as 7-8. An appropriate volume of stock solution of test compound in acetonitrile (at a concentration of 10 mM) was diluted with acetonitrile to 1 mM, so as to serve as a test drug solution. An appropriate volume of test drug solution was added to a corresponding volume of plasma and mixed uniformly, such that the concentration of the test compound in the incubation system was 5 µM, and the content of the organic solvent acetonitrile was 0.5%. 50 µL of mixed plasma was transferred into a 96-well plate (N=2), incubated at 37°C in a water bath for a designated time, and then added with 300 µL of internal standard-containing methanol solution to terminate the reaction. The reaction mixture was vortexed and centrifuged, and the supernatant was subjected to LC-MS/MS analysis. Propantheline and ZZL-7 were used as positive controls, and processed and tested under the same conditions as the test compound. A curve was plotted with the remaining percentage of the compound against incubation time to obtain a k value, and the half-life of each compound was calculated.

Where [3] appears, read: plasma, oral gavage 10 mg/kg vs intravenous 10 mg/kg.
Where [4] appears, read: plasma, ZZL-7 administered at 100 mg/kg via PO.

Where a SMILES comes first, the peptide text is derived from it. [ ]: non-standard residue; d: D form. The star is where a group is joined. Aze = O=C(O)[C@@H]1CCN1; dAze = O=C(O)[C@H]1CCN1; Bz = O=C(c1ccccc1)*

In data set [1] (plasma, oral gavage 10 mg/kg), `COC(=O)[C@@H](NC(=O)C1CCN1C(=O)C1CC1)C(C)C` (some centres unmarked) [A-2-2] returned an AUC(0-t) of 405 ng·h/mL. For the same compound, the bioavailability in data set [1] (setting [3]) amounted to 21.5%.

In data set [1] (plasma, oral gavage 10 mg/kg), `[2H]C([2H])([2H])OC(=O)[C@@H](NC(=O)C1CCN1C(C)=O)C(C)C` (some centres unmarked) [A-2-4] came in with an exposure AUC(0-t) of 3770 ng·h/mL. In data set [1] (setting [3]), the bioavailability is 80.2%. The matching figures for `COC(=O)[C@@H](NC(=O)[C@@H]1CCN1C(C)=O)C(C)C` [A-2-6] (Ac-[Aze]-Val-OMe): 3340 ng·h/mL and 148%. Taken in the same sequence, the figures for `COC(=O)[C@@H](NC(=O)[C@H]1CCN1C(C)=O)C(C)C` [A-2-7] (Ac-[dAze]-Val-OMe) were 3990 ng·h/mL and 83.9%. Taken in the same sequence, the figures for `[2H]C([2H])([2H])C(=O)N1CC[C@H]1C(=O)N[C@H](C(=O)OC)C(C)C` [A-2-8] were 3310 ng·h/mL and 88.5%.

Turning to `[2H]C([2H])([2H])C(=O)N1CC[C@@H]1C(=O)N[C@H](C(=O)OC)C(C)C` [A-2-9], the AUC(0-t) in data set [1] (plasma, oral gavage 10 mg/kg) is 5250 ng·h/mL. Besides, in data set [1] (setting [3]), the bioavailability is 84.7%. For `COC(=O)[C@@H](NC(=O)[C@@H]1CCN1C(=O)C1CC1)C(C)C` [A-2-21], in data set [2], the half-life at 5 µM is > 4.82 h.

Regarding `COC(=O)[C@@H](NC(=O)[C@H]1CCN1C(=O)c1ccccc1)C(C)C` [A-2-22] (Bz-[dAze]-Val-OMe), in data set [2], the half-life at 5 µM is > 4.82 h. As to `COC(=O)[C@@H](NC(=O)[C@@H]1CCN1C(=O)c1ccccc1)C(C)C` [A-2-23] (Bz-[Aze]-Val-OMe), in data set [2], the half-life at 5 µM is > 4.82 h. `COC(=O)[C@@H](NC(=O)[C@H]1CCN1C(=O)c1ccc(C(F)(F)F)cc1)C(C)C` [A-2-24]: in data set [2], the half-life at 5 µM was > 4.82 h.

In turn, `COC(=O)[C@@H](NC(=O)[C@@H]1CCN1C(=O)c1ccc(C(F)(F)F)cc1)C(C)C` [A-2-25] registered a half-life at 5 µM in data set [2] of 3.24 h. On the same count and under the same terms, the figure for `COC(=O)[C@@H](NC(=O)[C@H]1CCN1C(=O)c1ccc(F)cc1)C(C)C` [A-2-26] is 3.83 h; for `COC(=O)[C@@H](NC(=O)[C@@H]1CCN1C(=O)c1ccc(F)cc1)C(C)C` [A-2-27] it is 4.75 h; for `COC(=O)[C@@H](NC(=O)[C@@H]1CCN1C(=O)c1ccc(Cl)cc1)C(C)C` [A-2-29] it is 3.78 h. `COC(=O)[C@@H](NC(=O)[C@@H]1CCN1C(=O)c1ccco1)C(C)C` [A-2-31]: the half-life at 5 µM in data set [2] was > 4.82 h. With `COC(=O)[C@@H](NC(=O)[C@@H]1CCN1C(=O)c1cccs1)C(C)C` [A-2-33], the half-life at 5 µM in data set [2] was > 4.82 h. `CC(=O)N1CCC1C(=O)N[C@H](c1ncc[nH]1)C(C)C` (some centres unmarked) [B-2-1] showed an AUC(0-t) in data set [1] (plasma, oral gavage 10 mg/kg) of 1660 ng·h/mL. Besides, the bioavailability in data set [1] (setting [3]) came out at 44.9%. On to `[2H]C([2H])([2H])C(=O)N1CC[C@H]1C(=O)N[C@H](c1ncco1)C(C)C` [B-2-2], for which, in data set [1] (in vivo, oral gavage 10 mg/kg), the exposure AUC(0-t) came out at 6950 ng·h/mL. Moreover, the bioavailability in data set [1] (in vivo, oral gavage 10 mg/kg vs intravenous 10 mg/kg) worked out at 153%. Regarding `CC(=O)N1CC[C@@H]1C(=O)N[C@@H](c1ccccn1)C(C)C` [B-2-8], the half-life at 5 µM in data set [2] was > 4.82 h. This compound also registered an AUC(0-t) in data set [1] (plasma, oral gavage 10 mg/kg) of 2550 ng·h/mL. For the same compound, the bioavailability in data set [1] (setting [3]) was 72.5%. Turning to `COc1ccc(C(NC(=O)[C@H]2CCN2C(C)=O)C(C)C)cc1` (some centres unmarked) [B-2-24], the half-life at 5 µM in data set [2] was > 4.82 h. Regarding `CC(=O)N1CC[C@@H]1C(=O)NC(c1cc2ccccc2[nH]1)C(C)C` (some centres unmarked) [B-2-33], in data set [2], the half-life at 5 µM is > 4.82 h. In addition, in data set [1] (plasma, oral gavage 10 mg/kg), the AUC(0-t) came to 3360 ng·h/mL. In data set [1] (setting [3]), the bioavailability is 68.3%. Regarding `[2H]C([2H])([2H])C(=O)N1CC[C@H]1C(=O)N[C@@H](c1ncco1)C(C)C` [B-2-42], the half-life at 5 µM in data set [2] was > 4.82 h. Still for that read-out and setting: then `CC(C)[N+](C)(CCOC(=O)C1c2ccccc2Oc2ccccc21)C(C)C` [Propantheline, reference compound], with 0.417 h.

In turn, `COC(=O)[C@@H](NC(=O)[C@H](C)NC(C)=O)C(C)C` [ZZL-7, acetyl-L-alanyl-L-valine methyl ester, reference compound] (Ac-Ala-Val-OMe) displayed a half-life at 5 µM in data set [2] of 0.421 h. For the same compound, in data set [1] (setting [4]), the area under the curve AUC(0-t) is 138 ng·h/mL and the bioavailability came to 7.5%.

The values are drawn from patent publication EP4818189A1, “NITROGEN-CONTAINING HETEROCYCLIC COMPOUND, AND PREPARATION METHOD AND USE THEREFOR” (Chengdu Di'ao Pharmaceutical Group Co., Ltd., priority 2023, dated 2025).
